Our source for the IC50, AC50 and EC50 values is ChEMBL document CHEMBL1201862, “PubChem BioAssay data set” (2004).

What all share (type): functional
Experiment [1] addresses 72 kDa type IV collagenase (Homo sapiens, UniProt P08253). The experiment can be described thus: Dose Response validation of uHTS RPN11 inhibitor hits using a MMP-2 Fluorescence assay.
Experiment [2] addresses 26S proteasome non-ATPase regulatory subunit 14 (Homo sapiens, UniProt O00487). The experiment can be described thus: inhibition of proteasome subunit RPN11 – biochemical, fluorescence polarization, uHTS hits, confirmation (AID 602368).
In the next experiment the target is Prothrombin (Bos taurus, UniProt P00735). The experiment can be described thus: thrombin protease inhibitors – biochemical, fluorescence polarization, uHTS hits, dose response (AID 602369). (In fluorescence polarisation assays a small probe gives low polarisation when free and higher when bound to something large.)
In a further experiment the target is T1, Caspase-3 (Homo sapiens, UniProt P42574).
T1 sequence (P42574 whole entry): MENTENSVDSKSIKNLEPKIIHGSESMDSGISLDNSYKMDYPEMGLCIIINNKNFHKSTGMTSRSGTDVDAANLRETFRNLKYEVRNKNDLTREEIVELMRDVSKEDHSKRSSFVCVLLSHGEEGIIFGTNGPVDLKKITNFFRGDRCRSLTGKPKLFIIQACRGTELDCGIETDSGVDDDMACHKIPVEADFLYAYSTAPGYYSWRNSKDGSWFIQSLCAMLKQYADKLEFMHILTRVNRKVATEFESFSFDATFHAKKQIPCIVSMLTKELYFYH
The experiment can be described thus: SAR Analysis of small molecule inhibitors of Sentrin-specific proteases (SENPs) using a Caspase-3 Selectivity assay. [Related pubchem assays (depositor defined):AID2540, AID2599, AID434973, AID489001].

Experiment [3] addresses T2, Sentrin-specific protease 6 (Homo sapiens, UniProt Q9GZR1).
T2 sequence (Q9GZR1 whole entry): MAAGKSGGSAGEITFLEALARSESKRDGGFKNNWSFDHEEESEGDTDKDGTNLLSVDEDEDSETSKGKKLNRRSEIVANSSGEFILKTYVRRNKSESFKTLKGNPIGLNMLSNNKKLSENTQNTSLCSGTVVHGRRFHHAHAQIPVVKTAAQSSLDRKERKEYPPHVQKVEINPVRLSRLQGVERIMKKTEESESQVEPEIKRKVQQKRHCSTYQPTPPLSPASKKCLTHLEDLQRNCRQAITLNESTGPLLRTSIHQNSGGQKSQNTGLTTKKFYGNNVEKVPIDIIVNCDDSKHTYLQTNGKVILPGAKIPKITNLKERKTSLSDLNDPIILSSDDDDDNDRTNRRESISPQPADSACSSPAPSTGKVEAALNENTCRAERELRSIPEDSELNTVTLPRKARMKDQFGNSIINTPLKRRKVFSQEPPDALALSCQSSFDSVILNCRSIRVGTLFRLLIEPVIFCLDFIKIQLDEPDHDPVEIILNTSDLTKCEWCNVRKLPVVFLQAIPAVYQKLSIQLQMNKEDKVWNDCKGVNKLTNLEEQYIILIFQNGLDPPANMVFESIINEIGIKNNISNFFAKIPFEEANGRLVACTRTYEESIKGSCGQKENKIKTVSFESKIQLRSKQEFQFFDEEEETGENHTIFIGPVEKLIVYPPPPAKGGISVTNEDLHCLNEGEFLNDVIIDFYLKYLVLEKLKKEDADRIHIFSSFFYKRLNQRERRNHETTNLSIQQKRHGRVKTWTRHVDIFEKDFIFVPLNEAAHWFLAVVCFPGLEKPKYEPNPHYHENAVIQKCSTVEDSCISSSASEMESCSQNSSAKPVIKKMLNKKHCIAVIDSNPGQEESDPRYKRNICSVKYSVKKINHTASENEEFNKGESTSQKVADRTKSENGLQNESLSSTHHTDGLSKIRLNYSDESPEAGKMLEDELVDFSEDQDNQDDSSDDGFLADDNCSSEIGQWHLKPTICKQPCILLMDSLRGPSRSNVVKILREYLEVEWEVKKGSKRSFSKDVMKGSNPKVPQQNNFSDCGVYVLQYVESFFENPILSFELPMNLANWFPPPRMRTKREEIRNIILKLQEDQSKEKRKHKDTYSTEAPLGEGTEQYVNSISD
In words: SAR Analysis of small molecule inhibitors of Sentrin-specific protease 6 (SENP6) using a Luminescent assay. [Related pubchem assays (depositor defined):AID2582, AID2599].

For experiment [4], the target named is T3, Sentrin-specific protease 8 (Homo sapiens, UniProt Q96LD8).
T3 sequence (Q96LD8 whole entry): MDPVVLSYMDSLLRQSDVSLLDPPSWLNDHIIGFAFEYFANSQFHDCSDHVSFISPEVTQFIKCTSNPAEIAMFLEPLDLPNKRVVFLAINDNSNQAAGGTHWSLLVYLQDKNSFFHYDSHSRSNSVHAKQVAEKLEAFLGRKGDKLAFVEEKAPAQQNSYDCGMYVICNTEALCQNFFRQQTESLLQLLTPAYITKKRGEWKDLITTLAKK
In words: inhibition of human SENP8 cleavage activity – biochemical, luminescence, SAR follow-up (AID 504501).

Experiment [5] addresses T4, Sentrin-specific protease 7 (Homo sapiens, UniProt Q9BQF6).
T4 sequence (Q9BQF6 whole entry): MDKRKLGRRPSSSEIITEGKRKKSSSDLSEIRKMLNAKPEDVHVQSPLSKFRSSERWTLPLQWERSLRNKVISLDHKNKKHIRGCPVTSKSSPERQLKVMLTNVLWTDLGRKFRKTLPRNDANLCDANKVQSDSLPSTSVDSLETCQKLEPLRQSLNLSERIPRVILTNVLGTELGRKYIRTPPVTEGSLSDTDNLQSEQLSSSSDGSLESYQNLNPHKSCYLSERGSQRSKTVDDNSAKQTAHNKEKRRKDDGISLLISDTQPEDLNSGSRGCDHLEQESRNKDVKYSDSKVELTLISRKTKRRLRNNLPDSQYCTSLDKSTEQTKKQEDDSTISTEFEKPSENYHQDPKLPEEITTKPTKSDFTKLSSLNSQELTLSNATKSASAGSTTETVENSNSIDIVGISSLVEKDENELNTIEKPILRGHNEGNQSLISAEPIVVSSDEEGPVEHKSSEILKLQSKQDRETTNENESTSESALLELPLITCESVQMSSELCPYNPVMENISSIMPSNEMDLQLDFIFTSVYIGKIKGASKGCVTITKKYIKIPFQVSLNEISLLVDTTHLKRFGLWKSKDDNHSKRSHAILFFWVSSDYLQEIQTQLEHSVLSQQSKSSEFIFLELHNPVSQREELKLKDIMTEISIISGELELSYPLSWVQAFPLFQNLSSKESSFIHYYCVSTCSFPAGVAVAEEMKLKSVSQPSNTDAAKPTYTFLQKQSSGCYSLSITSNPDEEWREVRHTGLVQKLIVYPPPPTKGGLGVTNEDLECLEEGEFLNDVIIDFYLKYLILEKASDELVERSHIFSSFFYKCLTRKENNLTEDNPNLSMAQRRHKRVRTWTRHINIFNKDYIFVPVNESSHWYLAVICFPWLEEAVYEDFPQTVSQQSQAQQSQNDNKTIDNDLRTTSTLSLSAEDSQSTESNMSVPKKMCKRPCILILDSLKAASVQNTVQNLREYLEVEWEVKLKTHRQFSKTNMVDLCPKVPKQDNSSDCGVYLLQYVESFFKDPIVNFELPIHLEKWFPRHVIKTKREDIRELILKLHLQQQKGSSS
In words: inhibition of human SENP7 cleavage activity – biochemical, luminescence, SAR follow-up (AID 504497).

In a further experiment the test system is HEK293. In words: EBV LMP1 TES2 canonical NF-kB signalling blockers – cell-based, HEK293, luciferase, cherry-pick, dose response (AID 588343). To be noted: Homo sapiens.
Experiment [6] has as its target T5, Corticotropin-releasing factor receptor 2/Corticotropin-releasing factor-binding protein (Homo sapiens, UniProt P24387+Q13324).
T5 sequence (Q13324 whole entry): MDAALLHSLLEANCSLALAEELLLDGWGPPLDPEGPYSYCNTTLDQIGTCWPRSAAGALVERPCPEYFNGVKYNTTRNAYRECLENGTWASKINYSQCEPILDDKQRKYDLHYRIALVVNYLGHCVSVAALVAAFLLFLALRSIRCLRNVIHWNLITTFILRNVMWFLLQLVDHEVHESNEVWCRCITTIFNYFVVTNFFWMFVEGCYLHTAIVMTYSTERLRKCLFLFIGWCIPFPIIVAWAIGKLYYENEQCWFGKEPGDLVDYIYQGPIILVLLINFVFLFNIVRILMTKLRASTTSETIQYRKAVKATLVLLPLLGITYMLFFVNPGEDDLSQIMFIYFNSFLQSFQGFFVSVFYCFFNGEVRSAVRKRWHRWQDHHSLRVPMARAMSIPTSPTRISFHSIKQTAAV
T5 sequence (P24387 whole entry): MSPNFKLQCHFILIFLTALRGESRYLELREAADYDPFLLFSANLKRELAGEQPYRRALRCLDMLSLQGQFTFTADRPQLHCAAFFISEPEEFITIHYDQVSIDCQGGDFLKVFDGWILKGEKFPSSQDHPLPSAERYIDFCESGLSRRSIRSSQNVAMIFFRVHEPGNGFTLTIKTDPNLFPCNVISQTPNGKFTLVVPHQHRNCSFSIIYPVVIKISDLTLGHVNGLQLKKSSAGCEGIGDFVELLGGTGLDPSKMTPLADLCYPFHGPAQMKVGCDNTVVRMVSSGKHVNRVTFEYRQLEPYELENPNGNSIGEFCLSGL
The experiment can be described thus: activators of CRF receptor 2 with binding protein – uHTS hits, confirmation (AID 602473). The note with it: read-out: EC50_Mean.

Experiment [7] concerns the target T5, Corticotropin-releasing factor receptor 2/Corticotropin-releasing factor-binding protein. The experiment can be described thus: Dose Response confirmation of uHTS hits for small molecule antagonists of the CRF-binding protein and CRF-R2 receptor complex. To be noted: read-out: IC50_Mean.
For experiment [8], the target named is T6, Carboxy-terminal domain RNA polymerase II polypeptide A small phosphatase 1 (Homo sapiens, UniProt Q9GZU7).
T6 sequence (Q9GZU7 whole entry): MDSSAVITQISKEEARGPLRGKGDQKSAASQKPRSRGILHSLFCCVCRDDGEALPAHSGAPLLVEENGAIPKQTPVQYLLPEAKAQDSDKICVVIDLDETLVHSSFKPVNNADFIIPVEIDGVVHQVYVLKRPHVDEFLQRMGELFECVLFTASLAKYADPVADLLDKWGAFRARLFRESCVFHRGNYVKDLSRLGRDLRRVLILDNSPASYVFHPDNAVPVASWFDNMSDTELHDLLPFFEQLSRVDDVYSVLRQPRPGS
In words: CTDSP1 inhibitors, concentration-response, biochemical, absorbance readout, ultra-high-throughput screen actives (AID 540297).

Activity calls are given as the source filed them. Rule as the data show it, for most assays here: actives have a measured IC50 and inactives only a lower limit.

72 kDa type IV collagenase, sequence (P08253 whole entry): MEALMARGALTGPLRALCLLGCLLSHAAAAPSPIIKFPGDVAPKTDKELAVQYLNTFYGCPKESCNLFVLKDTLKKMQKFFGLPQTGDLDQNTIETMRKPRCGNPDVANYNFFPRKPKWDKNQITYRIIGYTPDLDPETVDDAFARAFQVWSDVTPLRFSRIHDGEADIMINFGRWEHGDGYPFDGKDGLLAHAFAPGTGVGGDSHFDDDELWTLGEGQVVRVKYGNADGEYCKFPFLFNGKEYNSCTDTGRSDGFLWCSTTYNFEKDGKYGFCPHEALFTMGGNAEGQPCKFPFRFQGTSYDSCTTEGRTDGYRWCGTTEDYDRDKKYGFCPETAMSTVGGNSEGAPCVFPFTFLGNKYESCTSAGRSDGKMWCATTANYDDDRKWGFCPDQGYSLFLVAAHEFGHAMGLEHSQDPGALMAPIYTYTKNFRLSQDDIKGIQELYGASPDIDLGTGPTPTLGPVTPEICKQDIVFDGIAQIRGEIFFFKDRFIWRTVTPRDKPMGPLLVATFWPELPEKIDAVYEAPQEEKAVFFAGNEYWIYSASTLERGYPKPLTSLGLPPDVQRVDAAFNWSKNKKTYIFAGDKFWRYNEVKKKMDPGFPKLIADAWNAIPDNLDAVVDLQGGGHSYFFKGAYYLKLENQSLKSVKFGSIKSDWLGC
26S proteasome non-ATPase regulatory subunit 14, sequence (O00487 whole entry): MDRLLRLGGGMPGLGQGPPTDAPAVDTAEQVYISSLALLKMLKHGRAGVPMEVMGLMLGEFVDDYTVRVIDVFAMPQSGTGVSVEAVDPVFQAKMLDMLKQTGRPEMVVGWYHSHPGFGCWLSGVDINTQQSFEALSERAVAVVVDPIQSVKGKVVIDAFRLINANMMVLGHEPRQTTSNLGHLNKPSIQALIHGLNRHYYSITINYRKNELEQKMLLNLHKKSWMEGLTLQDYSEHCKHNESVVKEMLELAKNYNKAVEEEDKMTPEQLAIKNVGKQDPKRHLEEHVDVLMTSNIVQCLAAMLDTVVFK

On to `O=Cc1sc(Nc2ccccc2)nc1Cl`, for which the IC50 in experiment [1] was > 100 µM (inactive); in experiment [2] it was 8.23 µM (active); at Prothrombin it was 11.4 µM (active).
Turning to `COc1ccc(OC)c2sc(NC(=O)c3ccc(Br)s3)nc12`, the IC50 (at Caspase-3; in [3]; in experiment [4]; in [5]) was > 99 µM (inactive) each time.
As a reminder, the AC50 is the concentration giving half of the maximal activity seen. In the case of `COc1ccc(C(=O)Nn2c(SCC(=O)NC3CCCCC3)nc3ccccc3c2=O)cc1`, the AC50 in the experiment with HEK293 is 6.79 µM (active). Moreover, in experiment [6], the EC50 was > 53 µM (inactive). Moreover, the IC50 in experiment [7] was < 368 nM (active).
For `O=C(NNc1ncnc2ccccc12)c1cccc(Cl)c1`, the IC50 in [1] was > 100 µM (inactive); in experiment [2], 24.8 µM (active); on Prothrombin, 71.3 µM (active); in experiment [8], 18.5 µM (active).
